Measurements reported in ChEMBL document CHEMBL1156414, “Safety and activity of the immune modulator HE2000 on the incidence of tuberculosis and other opportunistic infections in AIDS patients” (2007).
Activity calls are given as the source filed them. The rule behind the calls is not given here.

What was measured:
[1] = system: Mycobacterium tuberculosis; assay: Reduction in incidence of Mycobacterium tuberculosis coinfection in AIDS patient at 100 mg administered intramuscularly once daily for 5 days measured 140 days postdose; type: functional, organism-based
[2] = system: Mycobacterium tuberculosis; assay: Reduction in incidence of Mycobacterium tuberculosis coinfection in AIDS patient at 100 mg administered intramuscularly once daily for 5 days; type: functional; design: scale not given: the % may be the effect or the level left
Homo sapiens = assay: Reduction in cumulative incidence of opportunistic infections in AIDS patient at 100 mg administered intramuscularly once daily for 5 days; type: functional, organism-based

SMILES: C[C@]12CC[C@H](O)C[C@@H]1CC[C@@H]1[C@@H]2CC[C@]2(C)C(=O)[C@H](Br)C[C@@H]12 [16.ALPHA.-BROMOEPIANDROSTERONE]
- Activity [1]: Active
- Activity [2]: 42.2%
- Activity (Homo sapiens): Active
